Experiments:
[1] = target: T1, LINE1 reverse transcriptase (Homo sapiens, UniProt O00370); assay: Stable artificial-intron Cis LINE1 reporter assay (HeLa Tet-On 3G, Firefly luciferase); type: cell-based; settings: HeLa L1 artificial-intron reporter cells, doxycycline 500 ng/mL, 72 h, class symbols
T1 construct: expressed in transfected cells; host or cells: HeLa Tet-On 3G (Takara, cat no 631183)
Outline: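 HeLa Tet-On 3G clone stably carrying a bi-directional doxycycline-inducible artificial-intron LINE1 reporter, plated at 8,000 cells/well onto serially diluted compound. Expression induced with 500 ng/mL doxycycline (final); Firefly luciferase luminescence (Dual-Glo) read 72 h after plating as LINE1 activity.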

[2] = tested on: THP1 Dual TREX1 KO cells; assay: THP1 TREX1 KO inhibition assay, combination dosing (stampidine and Compound 2); type: cell-based; settings: combination of stampidine and Compound 2; k>0 denotes synergy
Protocol: Exemplary compounds were tested to determine the effect of combined dosing of two compounds on the type 1 interferon response in THP1 Dual TREX1 KO cells treated with 5-aza-2′-deoxycytidine. Assay procedures and results are described below.
THP1 Dual TREX1 KO cells were purchased from InvivoGen. The THP1-Dual™ KO-TREX1 cells were cultured in RPMI 1640, 10% heat-inactivated fetal bovine serum, 25 mM HEPES, 10 μg/mL blasticidin, and 100 μg/mL Zeocin. THP1-Dual™ KO-TREX1 cells were treated with a dose titration of test compound in the presence of 1 μM 5-aza-2′-deoxycytidine (Sigma, cat #189825). Type 1 Interferon and cell viability were assessed after five days of treatment.
Stock solution of test compounds stampidine and Compound 2 were prepared in DMSO followed by a three-fold dilution in DMSO. […]
THP1-Dual™ KO-TREX1 cells were treated with 1 μM 5-aza-2′-deoxycytidine. […] Luminescence was detected on a plate reader according to manufacturer's instructions. […]
The remaining cells were assessed for cell viability by adding 30 μl of CellTiter-Glo (Promega, G9683) solution to each well, and placed on a shaker for 10 minutes at room temperature. Luminescence was detected on a plate reader, according to manufacturer's instructions. […]

[3] = tested on: THP1-Dual KO-TREX1 xenograft tumors; assay: Altering IFN production in THP1 TREX1 KO xenografts (compounds 2, 25, 40); type: in vivo, mouse; settings: CB-17 SCID mice, decitabine 5 mg/kg IP, test compound 10, 30 or 100 mg/kg PO once daily 4 days, tumors 24 h post-last dose
Protocol: Exemplary compounds 2, 25 and 40 were tested for their ability to alter IFN levels in THP1-Dual™ KO-TREX1 xenografts in mice. Assay procedures are described below.
CB-17 SCID female mice were inoculated subcutaneously with 10 million THP1-Dual™ KO-TREX1 cells in 200 μl PBS with Matrigel (1:1) and grouped when tumor volume reached 350-400 mm^3. Mice bearing THP1-Dual™ KO-TREX1 xenograft tumors were then separated into 5 groups. Three groups were administered: (1) decitabine (DAC) at 5 mg/kg IP, once daily, for 4 days, and (2) test compound at 10, 30, or 100 mg/kg, PO, once daily, for 4 days. One group was administered decitabine (DAC) at 5 mg/kg IP, once daily, for 4 days, and the test compound vehicle control. The final group was administered the vehicle control from both the test compound and the vehicle control from decitabine. Decitabine is formulated in sterile PBS, pH 7.4, and Compound 2, 25, and 40 were formulated in 20% PEG400 in PBS.
Tumors were harvested 24 h post-last dose administered on day 4, ground in PBS at 50 Hz for 5 min, and kept on ice for 30 min while being vortexed every 5 min. […] Equal amounts of proteins were added to 96-well black plates, and luciferase signal was measured using the QUANTI-Luc™ detection medium according to manufacturer's instructions. Luminescence was measured using the EnVision® 2105 Multimode Plate Reader. […]

T1 sequence (O00370 whole entry, looked up): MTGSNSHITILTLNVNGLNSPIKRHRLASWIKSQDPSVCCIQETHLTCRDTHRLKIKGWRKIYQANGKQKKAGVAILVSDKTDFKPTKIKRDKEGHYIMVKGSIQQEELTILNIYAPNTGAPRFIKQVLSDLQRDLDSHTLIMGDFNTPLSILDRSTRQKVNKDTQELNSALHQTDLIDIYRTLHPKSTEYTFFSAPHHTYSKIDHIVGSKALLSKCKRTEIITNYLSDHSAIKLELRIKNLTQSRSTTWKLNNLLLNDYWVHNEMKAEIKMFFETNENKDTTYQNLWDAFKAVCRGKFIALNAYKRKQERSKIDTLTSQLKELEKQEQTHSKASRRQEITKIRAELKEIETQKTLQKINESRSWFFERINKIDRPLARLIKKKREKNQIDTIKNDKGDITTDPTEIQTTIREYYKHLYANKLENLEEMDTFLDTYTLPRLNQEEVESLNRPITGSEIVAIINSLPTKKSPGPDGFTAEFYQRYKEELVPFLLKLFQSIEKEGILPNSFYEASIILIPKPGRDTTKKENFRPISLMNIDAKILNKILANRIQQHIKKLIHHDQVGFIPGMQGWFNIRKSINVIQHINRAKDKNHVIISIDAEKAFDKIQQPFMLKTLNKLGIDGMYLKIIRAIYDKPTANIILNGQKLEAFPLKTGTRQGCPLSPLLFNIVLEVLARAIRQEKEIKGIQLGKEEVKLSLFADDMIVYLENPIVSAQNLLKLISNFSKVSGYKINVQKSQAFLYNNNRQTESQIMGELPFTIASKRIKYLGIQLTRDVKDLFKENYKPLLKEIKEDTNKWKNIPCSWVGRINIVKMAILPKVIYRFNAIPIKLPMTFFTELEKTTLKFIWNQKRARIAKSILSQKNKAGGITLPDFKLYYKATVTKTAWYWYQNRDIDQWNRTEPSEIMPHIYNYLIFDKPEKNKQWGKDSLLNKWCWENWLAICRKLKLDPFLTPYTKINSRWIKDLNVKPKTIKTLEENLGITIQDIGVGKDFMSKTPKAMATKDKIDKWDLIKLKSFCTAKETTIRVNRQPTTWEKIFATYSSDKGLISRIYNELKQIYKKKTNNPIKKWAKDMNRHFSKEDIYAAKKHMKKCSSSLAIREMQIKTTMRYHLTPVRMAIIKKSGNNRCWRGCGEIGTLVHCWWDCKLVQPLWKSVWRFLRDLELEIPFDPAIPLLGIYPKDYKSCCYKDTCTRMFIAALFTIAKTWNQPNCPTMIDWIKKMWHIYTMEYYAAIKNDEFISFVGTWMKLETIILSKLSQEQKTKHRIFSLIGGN

## Nc1ccn([C@H]2C[C@H](O)[C@](CO)(CCl)O2)c(=O)n1 [Compound 2, 4-amino-1-((2R,4S,5R)-5-(chloromethyl)-4-hydroxy-5-(hydroxymethyl)tetrahydrofuran-2-yl)pyrimidin-2(1H)-one]
[1]
  IC50: ≤ 50 nM
[2]
  best BRAID fit k: 2.00 (0.583-3.64)
[3]
  inhibition of DAC-induced IFN signal in THP1 tumors: potent inhibition of DAC-induced IFN signal
